Our source for the Activity and IC50 values is ChEMBL document CHEMBL5154799, “Discovery of a Novel Stilbene Derivative as a Microtubule Targeting Agent Capable of Inducing Cell Ferroptosis” (J Med Chem, 2022).

By IC50 is commonly meant the concentration at which inhibition is half-maximal.

Common to all, as to assay type: functional, cell-based
In test [1] the test system is A549. Briefly: Induction of apoptosis in human A549 cells assessed as cell viability pretreated with ferroptosis inhibitor ferrostatin-1 for 24 hrs followed by incubation with compound at 100 nM and measured after 48 hrs by CCK-8 assay. (In general: Formazan colour is commonly taken as a measure of viable cells.)
In test [2] the test system is A549. Briefly: Induction of lipid […] accumulation in human A549 cells at 100 nM incubated for 24 hrs by C11-BODIPY-581/591 staining based flow cytometry analysis.
For another test, the system named is HeLa. Briefly: Antiproliferative activity against human HeLa cells assessed as cell viability incubated for 48 hrs by MTT assay.
The subject of the next test is HCT-8. Briefly: Antiproliferative activity against human HCT-8 cells assessed as cell viability incubated for 48 hrs by MTT assay. Particulars: HCT-8, 48 h.
For test [3], the system named is A549. The test is described as follows: Induction of apoptosis in human A549 cells assessed as cell viability pretreated with caspase inhibitor Z-VAD-FMK for 24 hrs followed by incubation with compound at 100 nM and measured after 48 hrs by CCK-8 assay.
For test [4], the system named is A549. The test is described as follows: Induction of apoptosis in human A549 cells assessed as cell viability pretreated with necroptosis inhibitor necrostatin-I for 24 hrs followed by incubation with compound at 100 nM and measured after 48 hrs by CCK-8 assay.
Test [5] has as its system A549. The test is described as follows: Induction of apoptosis in human A549 cells assessed as cell viability pretreated with ferroptosis inhibitor desferoxamine for 24 hrs followed by incubation with compound at 100 nM and measured after 48 hrs by CCK-8 assay.
The next test relates to A2780. The test is described as follows: Antiproliferative activity against human A2780 cells assessed as cell viability incubated for 48 hrs by MTT assay. The note with it: A2780, 48 h.
The test system of the next test is MCF7. The test is described as follows: Antiproliferative activity against human MCF7 cells assessed as cell viability incubated for 48 hrs by MTT assay. The note with it: MCF7, 48 h.
Test [6] relates to A549. Briefly: Induction of apoptosis in human A549 cells assessed as cell viability pretreated with autophagy inhibitor 3-methyladenine for 24 hrs followed by incubation with compound at 100 nM and measured after 48 hrs by CCK-8 assay.
Test [7] has as its system A549. Briefly: Antiproliferative activity against human A549 cells assessed as cell viability incubated for 48 hrs by MTT assay. The note with it: A549, 48 h.

Activity calls are given as the source filed them. The calls are words filed in the database; no cut-off is given here.

On to `C=C(c1ccc(OC)cc1NC(=O)CO)c1ccc(OC)c2c1OC(C)(C)C=C2`, for which the outcome in the test with A549 [1], in the test on A549 [2], in the test with A549 [3], in the test on A549 [4], with A549 [5] and in the test on A549 [6] was Active. The IC50 came out at 40 nM in the test with HeLa; 130 nM in the test on HCT-8; 40 nM in the test with A2780; 100 nM in the test with MCF7; 40 nM with A549 [7].
